Test results reported in patent publication US8012956B2, “Tropane compounds” (Exelixis, Inc., priority 2007, dated 2011).

Target: HSP90 (Homo sapiens, UniProt P07900)
Assay: HSP90 inhibition (HSP90 IC50)
Assay type: biochemical

Molecule	IC50 [nM]
2-((cyclopropylmethyl)amino]-N4-{8- [5-({[(3R)-1-(1-methylethyl)pyrrolidin- 3-yl]amino}carbonyl)pyridin-2-yl]-8- azabicyclo[3.2.1]oct-3-endo- yl}benzene-1,4-dicarboxamide	< 500
N-[8-(5-acetylpyradin-2-yl)-8- azabicyclo[3.2.1]oct-3-endo-yl]-2- methyl-3-(methyloxy)benzamide	500 to 999
CCN(CC)CCCNC(=O)c1ccc(N2[C@@H]3CC[C@H]2C[C@@H](NC(=O)c2cccc(OC)c2C)C3)nc1 [N-[3-(diethylamino)propyl]-6-[3-endo-({[2-methyl-3-(methyloxy)phenyl]carbonyl}amino)-8-azabicyclo[3.2.1]oct-8-yl]pyridine-3-carboxamide]	500 to 999
COc1ccc(CNC(=O)c2ccc(N3[C@@H]4CC[C@H]3C[C@@H](NC(=O)c3cccc(OC)c3C)C4)nc2)c(OC)c1 [N-{[2,4-bis(methyloxy)phenyl]methyl}-6-[3-endo-({[2-methyl-3-(methyloxy)phenyl]carbonyl}amino)-8-azabicyclo[3.2.1]oct-8-yl]pyridine-3-carboxamide]	500 to 999
COc1cccc(NC(=O)c2ccc(N3[C@@H]4CC[C@H]3C[C@@H](NC(=O)c3cccc(OC)c3C)C4)nc2)c1 [6-[3-endo-({[2-methyl-3-(methyloxy)phenyl]carbonyl}amino)-8-azabicyclo[3.2.1]oct-8-yl]-N-[3-(methyloxy)phenyl]pyridine-3-carboxamide]	2000 to 10000

The remaining lines, values ahead:

IC50 [nM]	Molecule
< 500	CCC(Nc1cc(C(=O)N[C@H]2C[C@H]3CC[C@@H](C2)N3c2ccc(C(=O)C3CC3)cn2)c(C)cc1C(N)=O)C(F)(F)F (stereo partly drawn) [N-{8-[5-(cyclopropylcarbonyl)pyridine-2-yl]-8-azabicyclo[3.2.1]oct-3-endo-yl}-2-methyl-5-{[1-(trifluoromethyl)propyl]amino}benzene-1,4-dicarboxamide]
500 to 999	COc1ccc([C@H](NC(=O)c2ccc(N3C4CCC3CC(NC(=O)c3cccc(OC)c3C)C4)nc2)C(N)=O)cc1 (stereo partly drawn) [N-{(1S)-2-amino-1-[4-(methyloxy)phenyl]-2-oxoethyl}-6-[3-endo-({[2-methyl-3-(methyloxy)phenyl]carbonyl}amino)-8-azabicyclo[3.2.1]oct-8-yl]pyridine-3-carboxamide]
< 500	CCCNc1cc(C(=O)N[C@H]2C[C@H]3CC[C@@H](C2)N3c2ccc(C(=O)C3CC3)cn2)c(C)cc1C(N)=O [N-{8-[5-(cyclopropylcarbonyl)pyridin-2-yl]-8-azabicyclo[3.2.1]oct-3-endo-yl}-2-methyl-5-(propylamino)benzene-1,4-dicarboxamide]
500 to 999	C=CCc1c(OC)cccc1C(=O)N[C@H]1C[C@H]2CC[C@@H](C1)N2c1ccc(C(=O)NCc2ccccc2)cn1 [6-[3-endo-({[3-(methyloxy)-2-prop-2-en-1-ylphenyl]carbonyl}amino)-8-azabicyclo[3.2.1]oct-8-yl]-N-(phenylmethyl)pyridine-3-carboxamide]
< 500	COCCC(=O)c1ccc(N2[C@@H]3CC[C@H]2C[C@@H](NC(=O)c2ccc(C(N)=O)c(NCC4CC4)c2)C3)nc1 [2-[(cyclopropylmethyl)amino]-N4-(8-{5-[3-(methyloxy)propanoyl]pyridin-2-yl}-8-azabicyclo[3.2.1]oct-3-endo-yl)benzene-1,4-dicarboxamide]
< 500	CC(Nc1cc(C(=O)N[C@H]2C[C@H]3CC[C@@H](C2)N3c2ccc(C(=O)C3CC3)cn2)ccc1C(N)=O)C1CC1 (stereo partly drawn) [N4-{8-[5-(cyclopropylcarbonyl)pyridin-2-yl]-8-azabicyclo[3.2.1]oct-3-endo-yl}-2-[(1-cyclopropylethyl)amino]benzene-1,4-dicarboxamide]
< 500	CCN1CC[C@@H](NC(=O)c2ccc(N3C4CCC3CC(NC(=O)c3cc(C)c(C(N)=O)cc3C)C4)nc2)C1 (stereo partly drawn) [N-{8-[5-({[(3R)-1-ethylpyrrolidin-3-yl]amino}carbonyl)pyridin-2-yl]-8-azabicyclo[3.2.1]oct-3-endo-yl}-2,5-dimethylbenzene-1,4-dicarboxamide]
